Results: patent US6242462A, “Pharmacological agents” (Eli Lilly and Company, priority 2000, dated 2001)
One block for each compound: values may come before it.

Key:
human GluR1 [1] = molecular target: T1, human GluR1 (Homo sapiens, UniProt P42261); assay: Binding: displacement of 3H AMPA on GluR1-expressing cells (Table 1)
T1 construct: expressed in transfected cells; host or cells: HEK293
From the text: (§1) The selectivity of compounds acting at GluR5 receptors may be determined by measurement of activity at other AMPA and kainate receptors including receptor-ligand binding studies and whole-cell voltage clamp electro-physiological recordings of functional activity at human GluR1, GluR2, GluR3 and GluR4 receptors (Fletcher et al., 1995, Recept. Channels 3; 21-31), receptor-ligand binding studies and whole-cell voltage clamp electrophysiological recordings of functional activity at human GluR6 receptors (Hoo et al., Recept. Channels 2; 327-338) and whole-cell voltage clamp electrophysiological recordings of functional activity at AMPA receptors in acutely isolated cerebellar Purkinje neurons (Bleakman et al., 1996, Mol. Pharmacol. 49; 581-585) and other tissues expressing AMPA receptors (Fletcher and Lodge, 1996, Phannacol. Ther. 70; 65-89).
(§2) Cell lines (HEK293 cells) stably transfected with human GluR5 receptors were employed. Displacement of 3H AMPA by increasing concentrations of test compound was used on GluR1-4-expressing cells and 3H kainate (KA) on GluR5 and expressing cells. Estimated activity (Ki) in nM was as follows.

human GluR4 [2] = molecular target: T2, human GluR4 (Homo sapiens, UniProt P48058); assay: Binding: displacement of 3H AMPA on GluR4-expressing cells (Table 1)
T2 construct: expressed in transfected cells; host or cells: HEK293
From the text: as §1, §2

human GluR6 [3] = molecular target: T3, human GluR6 (Homo sapiens, UniProt Q13002); assay: Binding: displacement of radioligand (3H kainate) on GluR6 (Table 1); conditions: read-out: % displ, GluR6
T3 construct: expressed in transfected cells; host or cells: HEK293
From the text: as §1, §2

human GluR1 [4] = molecular target: T1, human GluR1; assay: Patch-clamp electrophysiology, HEK293 cells stably transfected with human GluR1, vs 100 μM AMPA (Table 2); format: cell-based
From the text: as §1
(§3) Functional studies were carried out on HEK293 cells stably transfected with human GluR receptors and on acutely isolated dorsal root ganglion neurons (DRG) using patch-clamp technology (Bleakman et al., 1996, Mol. Pharmacol., 49, 581-585). IC50 values (μM) for test Compound A were estimated for GluR1-4 vs 100 μM AMPA and GluR5 and GluR6 vs 100 μM KA with the following results: […]

human GluR5 [5] = molecular target: T4, human GluR5 (Homo sapiens, UniProt P39086); assay: Binding: displacement of 3H kainate on GluR5-expressing HEK293 cells (Table 1); parameters: expressed in transfected cells; host or cells: HEK293
From the text: (§4) Cell lines (HEK293 cells) stably transfected with human GluR5 receptors were employed. Displacement of 3H AMPA by increasing concentrations of test compound was used on GluR1-4-expressing cells and 3H kainate (KA) on GluR5 and expressing cells.
Target sequence in this assay (P39086 31-905 isoform P39086-2 limits assumed): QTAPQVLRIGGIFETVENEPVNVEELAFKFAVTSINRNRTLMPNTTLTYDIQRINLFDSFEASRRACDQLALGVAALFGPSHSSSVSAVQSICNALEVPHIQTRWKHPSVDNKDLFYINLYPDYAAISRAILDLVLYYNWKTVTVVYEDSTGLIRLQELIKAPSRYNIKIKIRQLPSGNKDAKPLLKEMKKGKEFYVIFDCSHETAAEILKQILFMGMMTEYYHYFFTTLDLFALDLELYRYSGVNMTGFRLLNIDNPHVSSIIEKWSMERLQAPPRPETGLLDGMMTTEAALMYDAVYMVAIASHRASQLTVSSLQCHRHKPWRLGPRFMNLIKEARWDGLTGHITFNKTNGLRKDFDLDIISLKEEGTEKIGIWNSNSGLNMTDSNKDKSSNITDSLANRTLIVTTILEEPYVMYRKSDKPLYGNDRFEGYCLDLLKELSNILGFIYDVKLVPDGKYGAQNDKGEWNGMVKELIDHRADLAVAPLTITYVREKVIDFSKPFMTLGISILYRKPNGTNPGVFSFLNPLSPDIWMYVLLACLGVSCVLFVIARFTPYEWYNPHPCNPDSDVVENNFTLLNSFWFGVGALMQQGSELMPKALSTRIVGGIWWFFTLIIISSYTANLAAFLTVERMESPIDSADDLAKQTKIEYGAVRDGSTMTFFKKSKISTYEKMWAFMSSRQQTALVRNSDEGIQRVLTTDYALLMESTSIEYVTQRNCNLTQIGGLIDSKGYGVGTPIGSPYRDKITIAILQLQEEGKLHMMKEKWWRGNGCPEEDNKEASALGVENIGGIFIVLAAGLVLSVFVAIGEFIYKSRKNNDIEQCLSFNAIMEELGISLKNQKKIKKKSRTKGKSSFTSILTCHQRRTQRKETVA

human GluR5 [6] = molecular target: T4, human GluR5; assay: Selectivity at GluR5 over other ionotropic glutamate receptors (binding and electrophysiology); conditions: GluR5 vs other ionotropic glutamate receptors
Target sequence in this assay (P39086 31-918): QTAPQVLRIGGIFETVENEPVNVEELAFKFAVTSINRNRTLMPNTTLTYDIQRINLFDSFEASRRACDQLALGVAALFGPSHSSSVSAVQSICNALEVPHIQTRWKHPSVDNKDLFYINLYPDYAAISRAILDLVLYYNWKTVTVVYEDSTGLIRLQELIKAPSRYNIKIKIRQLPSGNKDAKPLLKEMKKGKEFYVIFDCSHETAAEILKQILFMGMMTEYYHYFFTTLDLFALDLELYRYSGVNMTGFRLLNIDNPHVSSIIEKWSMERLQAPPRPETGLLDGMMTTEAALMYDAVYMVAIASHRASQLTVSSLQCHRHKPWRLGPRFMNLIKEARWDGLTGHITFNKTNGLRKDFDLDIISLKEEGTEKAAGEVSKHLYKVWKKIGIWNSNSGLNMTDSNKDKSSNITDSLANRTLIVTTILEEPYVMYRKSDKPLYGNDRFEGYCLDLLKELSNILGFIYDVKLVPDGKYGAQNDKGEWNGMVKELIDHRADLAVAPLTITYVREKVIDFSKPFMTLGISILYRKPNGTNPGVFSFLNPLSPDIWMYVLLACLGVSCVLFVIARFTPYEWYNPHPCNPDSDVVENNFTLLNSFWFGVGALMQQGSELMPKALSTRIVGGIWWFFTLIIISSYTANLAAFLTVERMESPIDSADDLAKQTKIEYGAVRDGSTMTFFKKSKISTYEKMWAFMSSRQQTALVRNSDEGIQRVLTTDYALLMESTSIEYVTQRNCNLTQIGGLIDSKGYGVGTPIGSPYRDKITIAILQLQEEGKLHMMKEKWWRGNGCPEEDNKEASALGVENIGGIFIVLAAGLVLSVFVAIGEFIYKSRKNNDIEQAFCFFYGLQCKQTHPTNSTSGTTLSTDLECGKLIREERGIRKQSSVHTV

human GluR5 [7] = molecular target: T4, human GluR5; assay: Patch-clamp electrophysiology, HEK293 cells stably transfected with human GluR5, vs 100 μM KA (Table 2); format: cell-based; parameters: expressed in transfected cells; host or cells: HEK293
From the text: (§5) GluR5 receptor antagonists may be identified by radiolabelled ligand binding studies at the cloned and expressed human GluR5 receptor (Korczak et al., 1994, Recept. Channels 3; 41-49), by whole cell voltage clamp electro-physiological recordings of functional activity at the human GluR5 receptor (Korczak et al., 1994, Recept. Channels 3; 41-49) and by whole cell voltage clamp electro-physiological recordings of currents in acutely isolated rat dorsal root ganglion neurons (Bleakman et al., 1996, Mol. Pharmacol. 49; 581-585).
as §3
Target sequence in this assay (P39086 31-905 isoform P39086-2 limits assumed): as the sequence (P39086 31-905 isoform P39086-2 limits assumed) above

human GluR2 [8] = molecular target: T5, human GluR2 (Homo sapiens, UniProt P42262); assay: Patch-clamp electrophysiology, HEK293 cells stably transfected with human GluR2, vs 100 μM AMPA (Table 2); format: cell-based
T5 construct: expressed in transfected cells; host or cells: HEK293
From the text: as §1, §3

human GluR2 [9] = molecular target: T5, human GluR2; assay: Binding: displacement of 3H AMPA on GluR2-expressing cells (Table 1)
From the text: as §4

human GluR3 [10] = molecular target: T6, human GluR3 (Homo sapiens, UniProt P42263); assay: Binding: displacement of 3H AMPA on GluR3-expressing cells (Table 1)
T6 construct: expressed in transfected cells; host or cells: HEK293
From the text: as §1, §2

human GluR4 [11] = molecular target: T2, human GluR4; assay: Patch-clamp electrophysiology, HEK293 cells stably transfected with human GluR4, vs 100 μM AMPA (Table 2); format: cell-based
From the text: as §1, §3

human GluR3 [12] = molecular target: T6, human GluR3; assay: Patch-clamp electrophysiology, HEK293 cells stably transfected with human GluR3, vs 100 μM AMPA (Table 2); format: cell-based
From the text: as §1, §3

[13] = test system: acutely isolated dorsal root ganglion neurons (DRG); assay: Patch-clamp electrophysiology, kainate induced current in acutely isolated dorsal root ganglion neurons (Table 2); format: cell-based; conditions: Rattus norvegicus, DRG neuron, based on % inhibition of 30 μM kainate induced current
From the text: as §5
Functional studies were carried out on HEK293 cells stably transfected with human GluR receptors and on acutely isolated dorsal root ganglion neurons (DRG) using patch-clamp technology (Bleakman et al., 1996, Mol. Pharmacol., 49, 581-585). IC50 values (μM) for test Compound A were estimated for GluR1-4 vs 100 μM AMPA and GluR5 and GluR6 vs 100 μM KA with the following results:
*Based on % inhibition of 30 μM kainate induced current.

human GluR6 [14] = molecular target: T3, human GluR6; assay: Patch-clamp electrophysiology, HEK293 cells stably transfected with human GluR6, vs 100 μM KA (Table 2); format: cell-based
From the text: as §1, §3

tail flick response [15] = assay: Tail Flick Test in cynomolgous primates; format: in vivo; conditions: oral, 0.03, 0.1, 0.3 and 3 mg/kg
Description: (§6) This well known test measures the effect of a test compound on the time taken for an animal to flick its tail out of a focused beam of light. In the test, a beam of light from a lamp is focused on a surface, and the lamp is then switched off. Treated and untreated (control) animals are restrained, with their tails positioned at the focal point of the beam of light from the lamp. The lamp is then switched on, and the time taken for the animal's tail to respond by moving is recorded.

pain = assay: Animal models of pain; conditions: in vivo
[16] = test system: acetic acid induced writhing; assay: Acetic acid induced mouse writhing test; format: in vivo, male CD-1 mice; conditions: mice; 1, 3, 10 and 30 mg/kg; 0.5% acetic acid i.p.
Description: 3) Acetic acid induced mouse writhing test.
This test measures the ability of a test compound to reduce the amount of writhing induced by intraperitoneal injection of acetic acid in mice.
Doses of test compound or control are administered to male CD-1 mice. Each animal is then administered 0.5% acetic acid in a volume of […] intraperitoneally. The animals are then placed in individual plexiglas observation chambers and the total number of writhes (flattening of the abdominal wall and asymmetric stretching and extending of the body and hindlimbs) recorded between 5 and 10 minutes after acetic acid administration.

tail flick response [17] = assay: Tail Flick Test in mice; format: in vivo; conditions: subcutaneous, 3, 10, and 30 mg/kg
Description: as §6

T3 sequence (Q13002 32-908): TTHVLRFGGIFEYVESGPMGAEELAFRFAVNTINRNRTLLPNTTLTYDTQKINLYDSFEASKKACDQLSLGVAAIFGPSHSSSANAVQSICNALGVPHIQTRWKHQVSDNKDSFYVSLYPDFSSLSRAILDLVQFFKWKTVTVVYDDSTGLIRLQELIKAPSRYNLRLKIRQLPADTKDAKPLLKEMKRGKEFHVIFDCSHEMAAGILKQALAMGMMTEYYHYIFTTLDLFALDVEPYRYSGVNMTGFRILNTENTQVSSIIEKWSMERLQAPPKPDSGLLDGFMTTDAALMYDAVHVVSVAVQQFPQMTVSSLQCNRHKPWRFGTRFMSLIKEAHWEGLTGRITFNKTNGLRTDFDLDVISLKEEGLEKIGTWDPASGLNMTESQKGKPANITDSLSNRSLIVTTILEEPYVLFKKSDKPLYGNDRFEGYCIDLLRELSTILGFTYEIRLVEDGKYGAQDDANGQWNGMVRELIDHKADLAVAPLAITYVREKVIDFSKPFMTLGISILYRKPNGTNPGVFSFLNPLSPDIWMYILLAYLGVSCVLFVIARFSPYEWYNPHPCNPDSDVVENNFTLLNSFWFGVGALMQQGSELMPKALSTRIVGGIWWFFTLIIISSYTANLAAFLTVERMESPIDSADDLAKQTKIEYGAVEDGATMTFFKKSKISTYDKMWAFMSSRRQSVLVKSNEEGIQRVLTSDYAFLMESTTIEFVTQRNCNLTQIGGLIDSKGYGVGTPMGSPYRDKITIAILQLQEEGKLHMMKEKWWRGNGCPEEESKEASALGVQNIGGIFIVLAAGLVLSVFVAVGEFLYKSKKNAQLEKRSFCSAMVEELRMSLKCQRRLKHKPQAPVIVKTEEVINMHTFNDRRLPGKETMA
T1 sequence (P42261 19-906): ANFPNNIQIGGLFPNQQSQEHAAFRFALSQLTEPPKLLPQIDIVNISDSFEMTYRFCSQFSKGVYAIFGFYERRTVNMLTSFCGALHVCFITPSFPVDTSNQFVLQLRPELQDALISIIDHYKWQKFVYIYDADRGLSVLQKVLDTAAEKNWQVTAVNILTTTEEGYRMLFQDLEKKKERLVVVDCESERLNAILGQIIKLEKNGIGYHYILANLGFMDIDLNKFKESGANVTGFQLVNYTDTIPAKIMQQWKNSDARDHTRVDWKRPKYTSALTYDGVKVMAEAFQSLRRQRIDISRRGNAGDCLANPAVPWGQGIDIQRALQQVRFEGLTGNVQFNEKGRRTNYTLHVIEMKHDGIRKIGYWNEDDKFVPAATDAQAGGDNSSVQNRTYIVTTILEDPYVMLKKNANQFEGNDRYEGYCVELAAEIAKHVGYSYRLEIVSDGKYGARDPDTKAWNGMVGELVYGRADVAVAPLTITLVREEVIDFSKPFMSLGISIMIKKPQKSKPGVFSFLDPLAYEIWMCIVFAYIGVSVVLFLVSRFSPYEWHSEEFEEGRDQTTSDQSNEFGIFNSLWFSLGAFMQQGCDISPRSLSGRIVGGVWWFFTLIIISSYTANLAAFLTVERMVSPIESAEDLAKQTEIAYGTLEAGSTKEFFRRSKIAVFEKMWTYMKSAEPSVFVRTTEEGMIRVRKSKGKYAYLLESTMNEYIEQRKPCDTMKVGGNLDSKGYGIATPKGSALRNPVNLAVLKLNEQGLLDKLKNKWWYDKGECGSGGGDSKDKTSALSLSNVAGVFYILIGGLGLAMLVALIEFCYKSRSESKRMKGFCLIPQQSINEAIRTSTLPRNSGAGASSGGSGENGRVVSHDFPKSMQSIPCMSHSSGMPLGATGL
T2 sequence (P48058 21-902): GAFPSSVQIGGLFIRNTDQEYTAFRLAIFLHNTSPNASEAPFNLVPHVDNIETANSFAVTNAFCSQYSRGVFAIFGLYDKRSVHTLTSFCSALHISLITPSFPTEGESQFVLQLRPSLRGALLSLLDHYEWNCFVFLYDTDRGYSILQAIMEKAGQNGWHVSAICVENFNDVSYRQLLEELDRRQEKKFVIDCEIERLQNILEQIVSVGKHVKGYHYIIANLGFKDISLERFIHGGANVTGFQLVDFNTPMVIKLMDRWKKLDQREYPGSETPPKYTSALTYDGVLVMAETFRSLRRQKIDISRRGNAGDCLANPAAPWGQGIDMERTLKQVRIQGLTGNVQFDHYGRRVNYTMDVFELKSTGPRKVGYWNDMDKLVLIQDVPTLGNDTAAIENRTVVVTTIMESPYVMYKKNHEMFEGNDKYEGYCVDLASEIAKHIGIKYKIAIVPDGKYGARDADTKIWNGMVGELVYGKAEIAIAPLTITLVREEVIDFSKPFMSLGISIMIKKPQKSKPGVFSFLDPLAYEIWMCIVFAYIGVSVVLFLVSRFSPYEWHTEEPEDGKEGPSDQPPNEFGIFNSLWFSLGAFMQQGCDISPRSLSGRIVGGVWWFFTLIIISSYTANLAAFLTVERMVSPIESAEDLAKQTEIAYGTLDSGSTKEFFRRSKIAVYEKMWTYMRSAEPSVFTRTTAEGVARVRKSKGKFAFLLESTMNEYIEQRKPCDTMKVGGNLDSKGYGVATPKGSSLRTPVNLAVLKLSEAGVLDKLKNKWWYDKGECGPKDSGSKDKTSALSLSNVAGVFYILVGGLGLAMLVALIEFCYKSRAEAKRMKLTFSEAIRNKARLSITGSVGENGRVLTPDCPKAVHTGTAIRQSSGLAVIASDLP

inhibition at 1000 µM (human GluR1 [1]; at 1 mM, 3H AMPA): 21% | inhibition at 1000 µM (human GluR4 [2]; at 1 mM, 3H AMPA): 23%
SMILES: O=C(O)c1ccc(C[C@H]2CC[C@H]3CN[C@H](C(=O)O)C[C@H]3C2)cc1 (relative stereo) [C, 3SR, 4aRS, 6SR, 8aRS-6-(((4-carboxy)phenyl)methyl)-1,2,3-4,4a,5,6,7,8,8a-decahydroisoquinoline-3-carboxylic acid]

inhibition at 100 µM (human GluR6 [3]): 6% | IC50 (human GluR1 [4]): > 100 µM | Estimated activity (Ki), GluR5 (human GluR5 [5]): 3.061 µM | selective GluR5 receptor antagonism (human GluR5 [6]): selective GluR5 receptor antagonists | IC50 (human GluR5 [7]): 3.9 ± 0.5 µM | IC50 (human GluR2 [8]): > 100 µM | Estimated activity (Ki), GluR2 (human GluR2 [9]): 35.337 µM | Estimated activity (Ki), GluR3 (human GluR3 [10]): 47.793 µM | Estimated activity (Ki), GluR1 (human GluR1 [1]; displacement of 3H AMPA): 150.686 µM | IC50 (human GluR4 [11]): > 100 µM | Estimated activity (Ki), GluR4 (human GluR4 [2]; displacement of 3H AMPA): 31.606 µM | IC50 (human GluR3 [12]): > 100 µM | IC50 (human GluR6 [14]): > 100 µM
SMILES: O=C(O)[C@@H]1C[C@H]2C[C@@H](COCc3nn[nH]n3)CC[C@H]2CN1 (relative stereo) [Compound A, 3SR, 4aRS, 6SR, 8aRS-6-[(1(2)H-tetrazol-5-yl)methoxy-methyl]decahydroisoquinoline-3-carboxylic acid]
IC50 [13]: 0.6 µM

Estimated activity (Ki), GluR5 (human GluR5 [5]): 5.823 µM | selective GluR5 receptor antagonism (human GluR5 [6]): selective GluR5 receptor antagonists | selective GluR5 receptor antagonism (human GluR5 [6]; listed as (3S,4aR,6S,8aR)-6-[(1(2)H-tetrazol-5-yl)methoxymethyl]decahydroisoquinoline-3-ca): selective GluR5 antagonist | selective GluR5 receptor antagonism (human GluR5 [6]; listed as Example 1): selective GluR5 antagonist
SMILES: O=C(O)[C@@H]1C[C@H]2C[C@@H](COCc3nn[nH]n3)CC[C@H]2CN1 [B, 3S,4aR,6S,8aR-6-((((1H-Tetrazole-5-yl)methyl)oxy)methyl)-1,2,3,4,4a,5,6,7,8,8a-decahydroisoquinoline-3-carboxylic Acid]
response time (tail flick) (tail flick response [15]): dose dependent increase in response time | effectiveness in animal models of pain (pain): effective in animal models of pain | writhing [16]: dose dependent reduction in writhing | response time (tail flick) (tail flick response [17]): dose dependent increase in response time

IC50 (human GluR4 [11]): > 100 µM | IC50 (human GluR6 [14]): > 100 µM
SMILES: O=C(O)c1ccc(C[C@H]2CC[C@H]3CN[C@H](C(=O)O)C[C@H]3C2)cc1 [D, 3S,4aR,6S,8aR-6-(((4-carboxy)phenyl)methyl)-1,2,3,4,4a,5,6,7,8,8a-decahydroisoquinoline-3-carboxylic acid]
IC50 [13]: 0.98 µM
